Data: US6472391B2, “Nitrogen-containing heterocyclic compounds” (Millennium Pharmaceuticals, Inc., priority 1996, dated 2002)

Row | SMILES | melting point [°C]
1 | COC(=O)c1cc(NC(=O)N2CCN(c3ncnc4cc(OC)c(OC)cc34)CC2)cc(C(=O)OC)c1 [Compound 91, N-[3,5-Bis(methoxycarbonyl)phenyl]-4-(6,7-dimethoxy-4-quinazolinyl)-1-piperazinecarboxamide] | 252 to 253
2 | COc1cc2ncnc(N3CCN(C(=S)Nc4ccc(S(N)(=O)=O)cc4)CC3)c2cc1OC [Compound 93, 4-(6,7-Dimethoxy-4-quinazolinyl)-N-(4-sulfamoylphenyl)-1-piperazinethiocarboxamide] | 172 to 180
3 | COc1cc2ncnc(N3CCN(C(=S)NCc4ccco4)CC3)c2cc1OC [Compound 94, 4-(6,7-Dimethoxy-4-quinazolinyl)-N-furfuryl-1-piperazinethiocarboxamide] | 189 to 190
4 | COc1cc2ncnc(N3CCN(C(=S)NC(=O)c4ccco4)CC3)c2cc1OC [Compound 95, 4-(6,7-Dimethoxy-4-quinazolinyl)-N-(2-furoyl)-1-piperazinethiocarboxamide] | 187 to 189
5 | COc1cc2ncnc(N3CCN(C(=O)NCCc4cccs4)CC3)c2cc1OC [Compound 96, 4-(6,7-Dimethoxy-4-quinazolinyl)-N-[2-(2-thienyl)ethyl]-1-piperazinecarboxamide] | 184 to 185
6 | COc1cc2ncnc(N3CCN(C(=S)Nc4cccnc4)CC3)c2cc1OC [Compound 97, 4-(6,7-Dimethoxy-4-quinazolinyl)-N-(3-pyridyl)-1-piperazinethiocarboxamide] | 169 to 171
7 | COc1cc2ncnc(N3CCN(C(=S)Nc4ccc5c(O)nnc(O)c5c4)CC3)c2cc1OC [Compound 99, N-(1,4-Dihydroxy-6-phthalazinyl)-4-(6,7-dimethoxy-4-quinazolinyl)-1-piperazinethiocarboxamide] | 153 to 155
8 | COc1cc2ncnc(N3CCN(C(=O)Nc4ccc(CN5CCCCC5)cc4)CC3)c2cc1OC [Compound 100, 4-(6,7-Dimethoxy-4-quinazolinyl)-N-[4-(piperidinomethyl)phenyl]-1-piperazinecarboxamide] | 122 to 123
9 | O=C(Nc1ccc([N+](=O)[O-])cc1)N1CCN(c2ncnc3ccccc23)CC1 [Compound 103, N-(4-Nitrophenyl)-4-(4-quinazolinyl)-1-piperazinecarboxamide] | 155 to 158
10 | O=C(Nc1ccc(Oc2ccccc2)cc1)N1CCN(c2ncnc3ccccc23)CC1 [Compound 104, N-(4-Phenoxyphenyl)-4-(4-quinazolinyl)-1-piperazinecarboxamide] | 74 to 75
11 | CCOc1cc2ncnc(N3CCN(C(=O)Nc4ccc(Oc5ccccc5)cc4)CC3)c2cc1OCC [Compound 106, 4-(6,7-Diethoxy-4-quinazolinyl)-N-(4-phenoxyphenyl)-1-piperazinecarboxamide] | 187 to 190
12 | COc1cc2c(N3CCN(C(=O)Nc4ccc([N+](=O)[O-])cc4)CC3)ncnc2c(OC)c1OC [Compound 107, N-(4-Nitrophenyl)-4-(6,7,8-trimethoxy-4-quinazolinyl)-1-piperazinecarboxamide] | 197 to 199
13 | COc1cc2c(N3CCN(C(=O)Nc4ccc(Oc5ccccc5)cc4)CC3)ncnc2c(OC)c1OC [Compound 108, N-(4-Phenoxyphenyl)-4-(6,7,8-trimethoxy-4-quinazolinyl)-1-piperazinecarboxamide] | 83 to 84
14 | CCNc1cc2ncnc(N3CCN(C(=O)Nc4ccc(Oc5ccccc5)cc4)CC3)c2cc1[N+](=O)[O-] [Compound 109, 4-(7-Ethylamino-6-nitro-4-quinazolinyl)-N-(4-phenoxyphenyl)-1-piperazinecarboxamide] | 242 to 244
15 | O=C(Nc1ccc([N+](=O)[O-])cc1)N1CCN(c2nc(-c3ccccc3)nc3ccccc23)CC1 [Compound 110, 4-(2-Phenyl-4-quinazolinyl)-N-(4-nitrophenyl)-1-piperazinecarboxamide] | 236 to 238
16 | COc1cc2nc(-c3ccccc3)nc(N3CCN(C(=O)Nc4ccc([N+](=O)[O-])cc4)CC3)c2cc1OC [Compound 111, 4-(6,7-Dimethoxy-2-phenyl-4-quinazolinyl)-N-(4-nitrophenyl)-1-piperazinecarboxamide] | 156 to 157
17 | COc1cc2ncnc(N3CCCN(C(=O)Nc4ccc([N+](=O)[O-])cc4)CC3)c2cc1OC [Compound 112, 4-(6,7-Dimethoxy-4-quinazolinyl)-N-(4-nitrophenyl)-1-homopiperazinecarboxamide] | 243 to 244
18 | COc1cc2ccnc(N3CCN(C(=O)Nc4ccc([N+](=O)[O-])cc4)CC3)c2cc1OC [Compound 113, 4-(6,7-Dimethoxy-1-isoquinolyl)-N-(4-nitrophenyl)-1-piperazinecarboxamide] | 247 to 248
19 | COc1cc2cc(Cl)nc(N3CCN(C(=O)Nc4ccc([N+](=O)[O-])cc4)CC3)c2cc1OC [Compound 114, 4-(3-Chloro-6,7-dimethoxy-1-isoquinolyl)-N-(4-nitrophenyl)-1-piperazinecarboxamide] | 227 to 228

Row | SMILES | melting point [°C]
20 | O=C(Nc1ccc(Oc2ccccc2)cc1)N1CCN(c2ccnc3cc(Cl)ccc23)CC1 [Compound 115, 4-(7-Chloro-4-quinolyl)-N-(4-phenoxyphenyl)-1-piperazinecarboxamide] | 159 to 161
21 | COc1cc2ncnc(N3CCN(C(=O)N(c4ccccc4)c4ccccc4)CC3)c2cc1OC [Compound 116, 4-(6,7-Dimethoxy-4-quinazolinyl)-N,N-diphenyl-1-piperazinecarboxamide] | 196 to 197
22 | COc1cc2ncnc(N3CCN(C(=O)Nc4ccc(N5CCOCC5)cc4)CC3)c2cc1OC [Compound 117, 4-(6,7-Dimethoxy-4-quinazolinyl)-N-(4-morpholinophenyl)-1-piperazinecarboxamide] | 254 to 256
23 | COc1cc2ncnc(N3CCN(C(=O)Nc4ccc5[nH]ccc5c4)CC3)c2cc1OC [Compound 118, 4-(6,7-Dimethoxy-4-quinazolinyl)-N-(5-indolyl)-1-piperazinecarboxamide] | 209 to 210
24 | COc1cc2ncnc(N3CCN(C(=O)NCCc4ccc(Cl)cc4)CC3)c2cc1OC [Compound 119, N-[2-(4-Chlorophenyl)ethyl]-4-(6,7-dimethoxy-4-quinazolinyl)-1-piperazinecarboxamide] | 177 to 178
25 | COc1cc2ncnc(N3CCN(C(=O)NCCc4ccc(Br)cc4)CC3)c2cc1OC [Compound 120, N-[2-(4-Bromophenyl)ethyl]-4-(6,7-dimethoxy-4-quinazolinyl)-1-piperazinecarboxamide] | 174 to 175
26 | Cn1c(=O)n(C)c2cc3c(N4CCN(C(=O)Nc5ccc(Oc6ccccc6)cc5)CC4)ncnc3cc21 [Compound 121, 4-(1,3-Dihydro-1,3-dimethyl-2-oxo-2H-imidazo[4,5-g]quinazolin-8-yl)-N-(4-phenoxyphenyl)-1-piperazinecarboxamide] | 250 to 255
27 | CCn1c(=O)n(CC)c2cc3c(N4CCN(C(=O)Nc5ccc(Oc6ccccc6)cc5)CC4)ncnc3cc21 [Compound 122, 4-(1,3-Diethyl-1,3-dihydro-2-oxo-2H-imidazo[4,5-g]quinazolin-8-yl)-N-(4-phenoxyphenyl)-1-piperazinecarboxamide] | 168 to 169
28 | CCn1c(=O)[nH]c2cc3c(N4CCN(C(=O)Nc5ccc(Oc6ccccc6)cc5)CC4)ncnc3cc21 [Compound 123, 4-(3-Ethyl-1,3-dihydro-2-oxo-2H-imidazo[4,5-g]quinazolin-8-yl)-N-(4-phenoxyphenyl)-1-piperazinecarboxamide] | 248 to 251
29 | CCn1nnc2cc3c(N4CCN(C(=O)Nc5ccc(Oc6ccccc6)cc5)CC4)ncnc3cc21 [Compound 124, 4-(3-Ethyl-3H-1,2,3-triazolo[4,5-g]quinazolin-8-yl)-N-(4-phenoxyphenyl)-1-piperazinecarboxamide] | 167 to 168
30 | COc1cc2ncnc(N3CCN(C(=S)NCc4ccccc4)CC3)c2cc1OC [Compound 125, N-Benzyl-4-(6,7-dimethoxy-4-quinazolinyl)-1-piperazinethiocarboxamide] | 187 to 189
31 | COc1cc2ncnc(N3CCN(C(=O)N[C@@H](C)c4ccccc4)CC3)c2cc1OC [Compound 127, (S)-4-(6,7-Dimethoxy-4-quinazolinyl)-N-(1-phenylethyl)-1-piperazinecarboxamide] | 191 to 192
32 | COc1cc2ncnc(N3CCN(C(=O)N[C@H](C)c4ccccc4)CC3)c2cc1OC [Compound 128, (R)-4-(6,7-Dimethoxy-4-quinazolinyl)-N-(1-phenylethyl)-1-piperazinecarboxamide] | 189 to 190
33 | COc1cc2ncnc(N3CCN(C(=S)N[C@@H](C)c4ccccc4)CC3)c2cc1OC [Compound 129, (S)-4-(6,7-Dimethoxy-4-quinazolinyl)-N-(1-phenylethyl)-1-piperazinethiocarboxamide] | 98 to 100
34 | COc1cc2ncnc(N3CCN(C(=S)N[C@H](C)c4ccccc4)CC3)c2cc1OC [Compound 130, (R)-4-(6,7-Dimethoxy-4-quinazolinyl)-N-(1-phenylethyl)-1-piperazinethiocarboxamide] | 99 to 101
35 | COc1cc2ncnc(N3CCN(C(=S)NCc4cccc5ccccc45)CC3)c2cc1OC [Compound 132, 4-(6,7-Dimethoxy-4-quinazolinyl)-N-(1-naphthylmethyl)-1-piperazinethiocarboxamide] | 164 to 165
36 | COc1cc2ncnc(N3CCN(C(=S)NC(c4ccccc4)c4ccccc4)CC3)c2cc1OC [Compound 133, 4-(6,7-Dimethoxy-4-quinazolinyl)-N-diphenylmethyl-1-piperazinethiocarboxamide] | 128 to 129
37 | COc1cc2ncnc(N3CCN(C(=O)N(C)c4ccccc4)CC3)c2cc1OC [Compound 137, 4-(6,7-Dimethoxy-4-quinazolinyl)-N-methyl-N-phenyl-1-piperazinecarboxamide] | 187 to 188
38 | COc1cc2ncnc(N3CCN(C(=S)NCC4CCCCC4)CC3)c2cc1OC [Compound 138, N-Cyclohexylmethyl-4-(6,7-dimethoxy-4-quinazolinyl)-1-piperazinethiocarboxamide] | 170 to 171
